According to US20250345492A1, “AN ANTIBACTERIAL POLYPEPTIDE COMPOUND, A MEDICAL DEVICE, HYDROGEL AND USE THEREOF” (priority 2020, published 2025):

Legend:
[1] = tested on: Staphylococcus aureus (ATCC 29213); details: ATCC 29213
Excerpt: (§1) With respect to the determination of antibacterial activity and antifungal activity of the antibacterial polypeptide compounds, the bacterial strains employed included: E. coli (ATCC 25922), E. coli (ATCC 43837), Pseudomonas aeruginosa (ATCC 27853), Klebsiella pneumoniae (ATCC 700603), Cronobacter sakazakii (ATCC 29544), Staphylococcus aureus (ATCC 29213), Bacillus subtilis (ATCC 23857) and Staphylococcus epidermidis (ATCC 12228); and the fungal strains employed included Candida albicans (ATCC 14053), Candida glabrata (ATCC 2001), Candida parapsilosis (ATCC 22019), Candida tropicalis (ATCC 750) and Candida krusei (ATCC 6258), all of which were standard strains from American Type Culture Collection. In addition, drug-resistant strains S-1a, S-2a, S-3a, S-4a, E-1b, E-2b, E-3b, E-4b, E-5b, P-1c, P-2c, P-3c, P-4c, P-5c, and clinically isolated fungal strains Candida glabrata 2-1 and Candida albicans 14-1, 14-2 and 14-3 were employed, all which were clinically isolated.
(§2) Simply, a proper amount of the cryopreserved bacterium or fungus was added to fresh MH/SD medium, and cultured on a shaker overnight at 180 rpm at 37° C. The obtained cells were seeded again and cultured on a shaker for 4-5 hours to obtain cells in logarithmic phase. The resulting cells were added to a 96-well plate (1×10^5 CFU/ml, 100 μL/well), and then 100 μL of polypeptide with different concentrations (1-256 μM) twice the final concentrations was added to corresponding well according to the 2-fold serial dilution method. The fresh medium was used as a negative control, which was prepared in triplicate for each concentration. After dosing, the 96-well plate was placed in an incubator at constant 37° C. and humidity for 12 hours to observe the results. According to naked eye observations, the concentration of the compound in the first transparent well following the turbid wells was recorded as the MIC of the compound, namely, the MIC value of the compound to the bacterium or fungus.

[2] = tested on: Pseudomonas aeruginosa (ATCC 27853); details: standard strain
Excerpt: as §1, §2

C. albicans ATCC14053 = details: ATCC14053
Excerpt: as §1, §2

[3] = tested on: Bacillus subtilis (ATCC 23857); details: ATCC 23857
Excerpt: as §1, §2

[4] = tested on: Cronobacter sakazakii (ATCC 29544); details: ATCC 29544
Excerpt: as §1, §2

[5] = tested on: Staphylococcus epidermidis (ATCC 12228); details: ATCC 12228
Excerpt: as §1, §2

C. glabrata ATCC22019 = details: ATCC22019
Excerpt: as §1, §2

C. krusei ATCC6258 = details: ATCC6258
Excerpt: as §1, §2

C. parapsilosis ATCC2001 = details: ATCC2001
Excerpt: as §1, §2

C. tropicalis ATCC750 = details: ATCC750
Excerpt: as §1, §2

E. coli (ATCC 25922) = details: ATCC 25922
Excerpt: as §1, §2

[6] = tested on: P-4c, clinical isolated drug-resistant strain PA; details: strain P-4c (PA)
Excerpt: as §1, §2

[7] = tested on: E-2b, clinical isolated drug-resistant strain ESBL; details: strain E-2b (ESBL)
Excerpt: as §1, §2

[8] = tested on: E-3b, clinical isolated drug-resistant strain ESBL; details: strain E-3b (ESBL)
Excerpt: as §1, §2

[9] = tested on: P-3c, clinical isolated drug-resistant strain PA; details: strain P-3c (PA)
Excerpt: as §1, §2

[10] = tested on: P-5c, clinical isolated drug-resistant strain PA; details: strain P-5c (PA)
Excerpt: as §1, §2

[11] = tested on: P-1c, clinical isolated drug-resistant strain PA; details: strain P-1c (PA)
Excerpt: as §1, §2

[12] = tested on: E-1b, clinical isolated drug-resistant strain ESBL; details: strain E-1b (ESBL)
Excerpt: as §1, §2

[13] = tested on: E-4b, clinical isolated drug-resistant strain ESBL; details: strain E-4b (ESBL)
Excerpt: as §1, §2

[14] = tested on: P-2c, clinical isolated drug-resistant strain PA; details: strain P-2c (PA)
Excerpt: as §1, §2

[15] = tested on: E-5b, clinical isolated drug-resistant strain ESBL; details: strain E-5b (ESBL)
Excerpt: as §1, §2

Substance | MIC S. aureus ATCC29213 [1] [µM] | MIC P. aerugmosa ATCC27853 [2] [µM] | MIC C. albicans ATCC14053 (C. albicans ATCC14053) [µM] | MIC B. subtilis ATCC23857 [3] [µM] | MIC C. sakazakii ATCC29544 [4] [µM] | MIC S. epidermidis ATCC12228 [5] [µM] | MIC C. glabrata ATCC22019 (C. glabrata ATCC22019) [µM] | MIC C. krusei ATCC6258 (C. krusei ATCC6258) [µM] | MIC C. parapsilosis ATCC2001 (C. parapsilosis ATCC2001) [µM] | MIC C. tropicalis ATCC750 (C. tropicalis ATCC750) [µM] | MIC C. coli ATCC25922 (E. coli (ATCC 25922)) [µM] | also measured
H-PFRLSLRL-NH2 [Compound 6] | 64 | 32 | 32 | 16 | 16 | 16 | 8 | 32 | 16 | 16 | 8 | 
H-PWRLSLHL-NH2 [Compound 12] | 32 | 32 | 32 | 16 | 16 | 8 | 16 | 32 | 16 | 16 | 16 | 
H-PWRLSLRL-NH2 [Compound 14] | 32 | 8 | 8 | 8 | 8 | 16 | 8 | 32 | 8 | 8 | 8 | 
gentamicin [reference compound] |  |  |  |  |  |  |  |  |  |  |  | MIC [6]: 50 µM; MIC [7]: 50 µM; MIC [8]: 50 µM; MIC [9]: 25 µM; MIC [10]: 50 µM; MIC [11]: 50 µM; MIC [12]: 50 µM; MIC [13]: 50 µM; MIC [14]: 50 µM; MIC [15]: 50 µM
